Experiments:
Format in all cases: binding
[1] = biological target: T1, kinases (KINOMEscan panel) (Homo sapiens, UniProt Q9UKI8); conditions: kinase TLK1; NEW KINOMEscan
T1 sequence (Q9UKI8 1-766): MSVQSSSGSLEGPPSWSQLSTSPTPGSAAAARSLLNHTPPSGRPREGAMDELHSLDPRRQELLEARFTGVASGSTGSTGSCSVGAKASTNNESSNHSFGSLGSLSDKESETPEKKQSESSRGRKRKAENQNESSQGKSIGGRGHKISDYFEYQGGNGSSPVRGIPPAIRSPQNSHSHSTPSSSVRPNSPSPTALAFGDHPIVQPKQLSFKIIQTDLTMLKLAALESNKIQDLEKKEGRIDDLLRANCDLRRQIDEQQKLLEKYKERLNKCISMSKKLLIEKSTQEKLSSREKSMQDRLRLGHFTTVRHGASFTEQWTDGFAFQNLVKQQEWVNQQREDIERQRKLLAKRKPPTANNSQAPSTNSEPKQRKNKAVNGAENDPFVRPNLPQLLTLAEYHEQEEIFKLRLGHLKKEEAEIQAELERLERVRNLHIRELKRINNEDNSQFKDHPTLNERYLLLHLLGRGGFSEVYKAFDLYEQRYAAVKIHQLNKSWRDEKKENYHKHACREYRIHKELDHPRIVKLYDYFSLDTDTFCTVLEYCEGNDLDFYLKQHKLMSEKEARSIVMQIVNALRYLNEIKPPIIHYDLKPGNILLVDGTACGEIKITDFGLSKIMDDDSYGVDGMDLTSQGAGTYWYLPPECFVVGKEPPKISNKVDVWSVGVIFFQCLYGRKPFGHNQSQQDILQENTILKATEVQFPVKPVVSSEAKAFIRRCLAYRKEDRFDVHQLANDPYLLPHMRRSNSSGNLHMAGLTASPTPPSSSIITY

[2] = biological target: kinases (KINOMEscan panel) (Homo sapiens, UniProt P06241); conditions: kinase FYN; NEW KINOMEscan
[3] = biological target: kinases (KINOMEscan panel) (Homo sapiens, UniProt O75460); conditions: NEW KINOMEscan
[4] = biological target: T2, kinases (KINOMEscan panel) (Homo sapiens, UniProt P33981); conditions: NEW KINOMEscan
T2 sequence (P33981 1-857): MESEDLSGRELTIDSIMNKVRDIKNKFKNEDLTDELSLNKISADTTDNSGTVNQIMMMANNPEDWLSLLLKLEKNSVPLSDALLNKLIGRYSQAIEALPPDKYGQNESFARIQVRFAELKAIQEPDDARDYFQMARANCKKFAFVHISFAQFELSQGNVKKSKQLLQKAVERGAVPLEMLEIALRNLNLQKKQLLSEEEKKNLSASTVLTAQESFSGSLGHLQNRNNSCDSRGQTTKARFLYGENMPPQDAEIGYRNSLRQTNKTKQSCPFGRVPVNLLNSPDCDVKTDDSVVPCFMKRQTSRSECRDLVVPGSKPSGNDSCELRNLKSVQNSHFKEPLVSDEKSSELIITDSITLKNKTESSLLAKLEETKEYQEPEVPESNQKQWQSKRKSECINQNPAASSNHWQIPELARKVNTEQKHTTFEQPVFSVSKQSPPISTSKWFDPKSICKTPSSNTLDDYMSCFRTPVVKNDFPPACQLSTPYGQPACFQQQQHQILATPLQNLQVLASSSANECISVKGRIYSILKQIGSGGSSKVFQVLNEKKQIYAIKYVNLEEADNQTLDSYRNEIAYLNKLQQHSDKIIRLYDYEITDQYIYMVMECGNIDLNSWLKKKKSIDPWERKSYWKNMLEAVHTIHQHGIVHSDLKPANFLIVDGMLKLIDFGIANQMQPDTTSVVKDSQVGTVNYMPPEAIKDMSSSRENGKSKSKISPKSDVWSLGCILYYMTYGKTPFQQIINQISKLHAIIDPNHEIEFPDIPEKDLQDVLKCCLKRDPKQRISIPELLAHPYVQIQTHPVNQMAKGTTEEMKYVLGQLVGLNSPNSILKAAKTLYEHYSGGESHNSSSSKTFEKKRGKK

[5] = biological target: kinases (KINOMEscan panel) (Homo sapiens, UniProt P00519, F317L); conditions: NEW KINOMEscan; for KINOMEscan ABL1(F317L)-phosphorylated: kinase ABL1(F317L)-phosphorylated
kinases (KINOMEscan panel) (Homo sapiens, UniProt P00519, F317L), sequence (P00519 whole entry F317L): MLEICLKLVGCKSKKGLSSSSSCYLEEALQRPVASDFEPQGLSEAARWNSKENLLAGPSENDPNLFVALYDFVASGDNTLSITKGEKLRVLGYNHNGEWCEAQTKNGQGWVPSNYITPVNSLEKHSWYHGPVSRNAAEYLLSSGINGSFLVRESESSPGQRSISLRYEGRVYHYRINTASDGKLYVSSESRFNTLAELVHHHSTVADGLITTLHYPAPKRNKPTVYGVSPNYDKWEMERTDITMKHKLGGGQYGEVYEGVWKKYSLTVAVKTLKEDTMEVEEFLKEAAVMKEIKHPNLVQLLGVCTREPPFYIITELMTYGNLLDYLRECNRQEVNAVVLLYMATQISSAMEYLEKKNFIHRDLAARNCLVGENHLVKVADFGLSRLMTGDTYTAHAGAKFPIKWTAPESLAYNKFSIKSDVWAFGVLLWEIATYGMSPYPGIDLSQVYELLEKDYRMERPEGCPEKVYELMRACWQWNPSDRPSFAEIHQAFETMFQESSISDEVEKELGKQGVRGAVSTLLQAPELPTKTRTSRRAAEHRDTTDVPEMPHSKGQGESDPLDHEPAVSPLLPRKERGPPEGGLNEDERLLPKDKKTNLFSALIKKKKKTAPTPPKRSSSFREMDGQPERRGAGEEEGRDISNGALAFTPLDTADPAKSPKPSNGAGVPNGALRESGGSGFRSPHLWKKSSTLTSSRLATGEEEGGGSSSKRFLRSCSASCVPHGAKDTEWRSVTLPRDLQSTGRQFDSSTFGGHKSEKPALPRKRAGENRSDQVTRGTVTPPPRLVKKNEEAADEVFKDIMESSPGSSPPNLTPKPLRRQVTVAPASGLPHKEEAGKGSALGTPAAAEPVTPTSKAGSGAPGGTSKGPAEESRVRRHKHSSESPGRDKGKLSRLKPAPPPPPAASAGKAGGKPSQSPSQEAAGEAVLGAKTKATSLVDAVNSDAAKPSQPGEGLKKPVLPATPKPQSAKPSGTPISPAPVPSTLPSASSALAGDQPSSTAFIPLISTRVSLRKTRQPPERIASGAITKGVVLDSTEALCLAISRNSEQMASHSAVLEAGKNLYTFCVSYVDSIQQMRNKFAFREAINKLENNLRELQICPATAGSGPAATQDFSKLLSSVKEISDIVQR

kinases (KINOMEscan panel) (Homo sapiens, UniProt P06241), sequence (P06241 whole entry): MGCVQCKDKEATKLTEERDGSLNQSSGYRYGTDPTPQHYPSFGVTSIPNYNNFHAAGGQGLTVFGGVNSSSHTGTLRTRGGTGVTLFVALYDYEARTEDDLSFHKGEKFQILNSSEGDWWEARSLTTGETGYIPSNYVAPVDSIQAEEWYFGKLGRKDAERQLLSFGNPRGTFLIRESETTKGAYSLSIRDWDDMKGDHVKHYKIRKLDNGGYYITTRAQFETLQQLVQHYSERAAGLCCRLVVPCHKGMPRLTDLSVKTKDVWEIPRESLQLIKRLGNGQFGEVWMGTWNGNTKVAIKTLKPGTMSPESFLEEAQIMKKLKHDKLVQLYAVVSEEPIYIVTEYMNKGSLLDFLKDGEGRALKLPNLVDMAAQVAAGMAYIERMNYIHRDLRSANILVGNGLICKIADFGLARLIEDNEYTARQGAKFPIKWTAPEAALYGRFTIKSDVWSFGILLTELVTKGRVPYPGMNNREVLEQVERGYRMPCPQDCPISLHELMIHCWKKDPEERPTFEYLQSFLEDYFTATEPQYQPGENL
kinases (KINOMEscan panel) (Homo sapiens, UniProt O75460), sequence (O75460 19-977): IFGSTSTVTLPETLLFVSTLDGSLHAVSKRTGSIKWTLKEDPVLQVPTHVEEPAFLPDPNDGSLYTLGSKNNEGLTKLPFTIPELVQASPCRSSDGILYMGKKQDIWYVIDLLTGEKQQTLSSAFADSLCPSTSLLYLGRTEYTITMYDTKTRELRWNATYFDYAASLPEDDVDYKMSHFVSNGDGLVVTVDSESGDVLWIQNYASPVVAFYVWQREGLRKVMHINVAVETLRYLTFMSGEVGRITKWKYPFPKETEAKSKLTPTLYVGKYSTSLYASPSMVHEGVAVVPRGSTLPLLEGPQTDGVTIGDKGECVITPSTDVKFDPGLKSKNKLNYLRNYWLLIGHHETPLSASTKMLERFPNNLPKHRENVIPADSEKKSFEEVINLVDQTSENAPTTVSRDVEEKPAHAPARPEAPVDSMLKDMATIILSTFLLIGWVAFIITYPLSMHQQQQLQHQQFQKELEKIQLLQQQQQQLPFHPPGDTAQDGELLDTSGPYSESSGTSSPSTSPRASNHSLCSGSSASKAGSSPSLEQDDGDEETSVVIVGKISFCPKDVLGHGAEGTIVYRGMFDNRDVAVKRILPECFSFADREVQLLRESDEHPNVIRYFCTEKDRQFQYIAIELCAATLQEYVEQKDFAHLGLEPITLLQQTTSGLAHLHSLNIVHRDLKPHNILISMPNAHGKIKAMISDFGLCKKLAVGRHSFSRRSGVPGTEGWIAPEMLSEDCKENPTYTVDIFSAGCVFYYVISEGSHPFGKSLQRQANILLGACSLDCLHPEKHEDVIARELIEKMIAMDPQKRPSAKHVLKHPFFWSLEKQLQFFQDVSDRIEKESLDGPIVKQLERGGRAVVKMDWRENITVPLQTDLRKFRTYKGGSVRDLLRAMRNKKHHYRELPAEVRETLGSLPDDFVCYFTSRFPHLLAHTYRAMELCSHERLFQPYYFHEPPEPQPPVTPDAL

Row | Structure (SMILES) | KINOMEscan TLK1 [1] | KINOMEscan FYN [2] | KINOMEscan ERN1 [3] | KINOMEscan TTK [4] | KINOMEscan ABL1(F317L)-nonphosphorylated [5] | KINOMEscan ABL1(F317L)-phosphorylated [5]
1 | Cc1cccc(-c2nc(Nc3ccc4nn(C)cc4c3)c3ccccc3n2)n1 [NK167] | 0 | 0 | 0 | 17 | 30 | 0
2 | Cc1cccc(-c2nc(N(C)c3ccc4ncsc4c3)c3ccccc3n2)n1 [NK-161] | 0 | 0 | 11 | 26 | 18 | 0
